Test [1] concerns the target T1, Dipeptidyl peptidase 4 (Homo sapiens, UniProt P27487).
In test [2] the target is Dipeptidyl peptidase II and dipeptidyl peptidase IV (DPP2 and DPP4) (Homo sapiens) (UniProt P27487+Q9UHL4). Description: Selectivity index against Dipeptidyl Peptidase IV and Dipeptidyl Peptidase II inhibitory activities. It is filed as protein assay.
Test [3] deals with T2, Dipeptidyl peptidase 2 (Homo sapiens, UniProt Q9UHL4).
Test [4] addresses T1, Dipeptidyl peptidase 4. The source holds these as a separate data set.
Test [5] deals with T2, Dipeptidyl peptidase 2. The test is described as follows: Inhibitory activity against Dipeptidyl Peptidase II.

IC50, SI and Ki data for 21 compounds are collected here from ChEMBL document CHEMBL1135386, “Development of potent and selective dipeptidyl peptidase II inhibitors” (Bioorg Med Chem Lett, 2002).

Bounds are passed on as bounds.

T1 sequence (P27487 whole entry): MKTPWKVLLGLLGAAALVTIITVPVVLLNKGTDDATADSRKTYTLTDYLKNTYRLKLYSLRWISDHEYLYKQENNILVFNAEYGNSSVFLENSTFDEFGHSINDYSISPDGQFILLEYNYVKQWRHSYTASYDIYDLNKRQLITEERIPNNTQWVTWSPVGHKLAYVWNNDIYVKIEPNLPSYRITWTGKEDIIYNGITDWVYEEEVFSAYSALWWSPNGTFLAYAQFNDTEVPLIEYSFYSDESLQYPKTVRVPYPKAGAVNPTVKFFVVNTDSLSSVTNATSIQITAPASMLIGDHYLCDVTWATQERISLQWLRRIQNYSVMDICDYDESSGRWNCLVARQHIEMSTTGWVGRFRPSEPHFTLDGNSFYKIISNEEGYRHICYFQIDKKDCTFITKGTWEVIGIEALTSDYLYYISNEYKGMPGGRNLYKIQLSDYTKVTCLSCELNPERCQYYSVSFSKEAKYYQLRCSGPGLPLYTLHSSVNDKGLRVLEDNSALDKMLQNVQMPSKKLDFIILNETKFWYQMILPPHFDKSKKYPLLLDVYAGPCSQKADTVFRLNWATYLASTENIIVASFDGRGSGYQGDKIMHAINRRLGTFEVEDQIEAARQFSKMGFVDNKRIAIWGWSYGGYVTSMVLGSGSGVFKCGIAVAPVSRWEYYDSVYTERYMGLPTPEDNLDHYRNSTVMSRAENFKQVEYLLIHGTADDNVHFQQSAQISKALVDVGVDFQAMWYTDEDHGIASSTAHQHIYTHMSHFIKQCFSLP

As for `N[C@@H](CC(=O)O)C(=O)N1CCCC1`, the IC50 (commonly the point on the concentration scale where inhibition reaches its midpoint) in test [1] turned out to be 122 µM.
Same read-out and setting: to `NC[C@H](N)C(=O)N1CCCCC1` belongs over 1000 µM.
Same read-out and setting: to `CCC(C)C(N)C(=O)N1CCCCC1` (configuration not stated) belongs 67 µM.
Take `NCC[C@H](N)C(=O)N1CCCCC1`: in test [1], the IC50 is over 1000 µM. The same compound registered an SI in test [2] of over 7590.
The compound `NC(CO)C(=O)N1CCCC1` (configuration not stated) returned an IC50 in test [1] of 190 µM.
On to `N[C@@H](CC1CCCCC1)C(=O)N1CCCCC1`, for which the concentration for half-maximal inhibition (IC50) in test [1] worked out at 217 µM.
The compound `NCCCCC(N)C(=O)N1CCCCC1` (configuration not stated) showed an IC50 in test [1] of 247 µM. The SI in test [2] is 154.
For `NCCCCC(NC(=O)OCc1ccccc1)C(=O)N1CCCCC1` (configuration not stated) the same measures were 135 µM and 64.
In the case of `C[C@H](N)C(=S)N1CCSC1`, the Ki – broadly, the equilibrium dissociation constant of an inhibitor or competing ligand from its target – in test [3] was 0.277 µM; in test [4], 7.88 µM.
With `NCCCCC(N)C(=O)N1CCCC1` (configuration not stated), the IC50 in test [1] was 39 µM.
For `NCCCC(N)C(=O)N1CCCCC1` (configuration not stated), the IC50 in test [1] is over 500 µM. Also, in test [2], the SI is over 1110.
Turning to `NCC(=O)N1CCCC1`, the half-inhibitory concentration (IC50) in test [1] was over 1000 µM.
In turn, `NC(Cc1c[nH]cn1)C(=O)N1CCCCC1` (configuration not stated) registered a 50% inhibitory concentration (IC50) in test [1] of 213 µM.
`S=C(C1CCCN1)N1CCCC1` (configuration not stated) registered a concentration for half-maximal inhibition (IC50) in test [1] of over 500 µM.
The same measure, in the same setting: under `NC(Cc1ccc(O)cc1)C(=O)N1CCCC1` (configuration not stated) stands 14 µM.
With `C[C@H](N)C(=O)N1CCC[C@H]1C#N`, half-maximal inhibition in test [5] (IC50) was put at 110 µM.
Take `NC(Cc1ccccc1)C(=O)N1CCCC1` (configuration not stated): the IC50 in test [1] was determined as 21 µM.
Consider `C[C@H](N)C(=S)N1CCCC1`, for which the inhibition constant (Ki) in test [3] was 1.43 µM; in test [4], 47.6 µM.
As for `C[C@H](N)C(=O)N1CCCC1`, the midpoint of inhibition in test [1], the IC50, lay at 41 µM.
The same measure, in the same setting: under `NC(=O)CC(N)C(=O)N1CCCC1` (configuration not stated) stands 188 µM.
On the same count and under the same terms, to `NC(Cc1c[nH]cn1)C(=O)N1CCCC1` (configuration not stated) belongs 23.2 µM.
